Reference: paper PMC6934184, “Selective DNA-PKcs inhibition extends the therapeutic index of localized radiotherapy and chemotherapy” (The Journal of Clinical Investigation, 2019)

Molecular target: T1, MAPK15 (ERK7) (Homo sapiens, UniProt Q8TD08)
T1 construct: purchased Thermo Fisher Scientific (Life Technologies) SelectScreen
Assay: SelectScreen LanthaScreen
Type: binding
Conditions: read-out: % displacement
Procedure, shortened: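 NU5455 was profiled across the SelectScreen Broad panel of kinase activity and binding assays. Z'LYTE reactions such as CSF1R ran at apparent Km ATP, while the Adapta CAMK1 assay used ATP listed as 10. Values are given as percent.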

T1 sequence (Q8TD08 whole entry): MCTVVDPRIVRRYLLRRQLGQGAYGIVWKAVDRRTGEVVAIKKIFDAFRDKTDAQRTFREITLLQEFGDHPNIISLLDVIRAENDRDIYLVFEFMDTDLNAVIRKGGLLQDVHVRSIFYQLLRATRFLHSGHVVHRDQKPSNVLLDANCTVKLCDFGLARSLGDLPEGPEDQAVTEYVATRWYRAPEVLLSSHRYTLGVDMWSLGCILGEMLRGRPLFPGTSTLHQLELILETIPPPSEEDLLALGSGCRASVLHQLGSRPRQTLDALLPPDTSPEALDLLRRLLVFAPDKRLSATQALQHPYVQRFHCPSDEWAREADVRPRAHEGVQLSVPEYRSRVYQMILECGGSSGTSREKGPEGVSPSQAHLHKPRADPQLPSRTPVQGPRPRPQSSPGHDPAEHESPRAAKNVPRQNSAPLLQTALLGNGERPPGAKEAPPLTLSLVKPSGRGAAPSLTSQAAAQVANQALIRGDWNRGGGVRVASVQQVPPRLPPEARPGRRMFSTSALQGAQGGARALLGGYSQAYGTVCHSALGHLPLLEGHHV

With `CN(C(=O)CN1CCOCC1)c1ccc2sc3c(-c4cccc5c(=O)cc(N6CC7CCC(C6)O7)oc45)cccc3c2c1` [NU5455] the inhibition at 1 µM was 3.6%.
